“Also recorded” adds a separate entry of the source. Read-outs that look alike come from different tables or passages of the source.
Assays:
[1] = test system: Nrf2 (ARE-driven luciferase gene expression); test: ARE-driven luciferase promoter-reporter assay in stably transfected human cancer cell lines; format: cell-based
Method: As an example of the properties of PB201, cell lines were cultured which had been stably transfected with constructs of the luciferase gene. This luciferase gene was driven in its promoter region by copies of the ARE Nrf2-binding sequence, known as promoter-reporter constructs (Simmons, Fan, Yeoman, Wakefield and Ramabhadran, NRF2 Oxidative Stress Induced by Heavy Metals is Cell Type Dependent, Curr Chem Genomics 5, 1-12 (2011); Shukla, Huang, Simmons, Tice, Witt, Vanleer, Ramabhadran, Austin and Xia, Profiling environmental chemicals for activity in the antioxidant response element signaling pathway using a high throughput screening approach, Environ Health Perspect 120, 1150-1156 (2012)).
Briefly, the stably transfected cells of types HepG2 (human liver), AREc32 (human breast), MCF7 (human breast), A549 (human lung), 293T (human kidney), and A172 (human brain) were seeded at low density in 24-well plates and incubated at 37° C. with 10% CO2. After 24 h various concentrations of combinations of agents were added to the cells. After an additional 18 h of incubation, the cells were lysed in their wells with 100 μl of a lysing buffer that contains 3.5 mM sodium pyrophosphate to stabilize light output by luciferase. A 20 μl aliquot of cell lysate was added to a small test tube, placed in a BD Monolight 3010 luminometer for background luminescence, and then 50 μl of 1 mM luciferin was injected into the tube. Relative Light Units integrated for 10 sec were measured for each sample.

[2] = test system: HepG2 cells; test: Affymetrix PrimeView gene expression array of PB201-treated HepG2 cells; format: cell-based; details: Homo sapiens, 1.5 micrograms/mL, 18 hours
Method: As an example of the cell protective mechanisms induced by PB201 treatment, gene upregulation in cells treated with PB201 was examined. Briefly, cultured HepG2 liver cells were treated with PB201 at 1.5 micrograms/mL concentration for 18 hours, then total RNA was extracted from the HepG2 cells by using the RNeasy Total RNA Isolation Kit (QIAGEN Inc. Valencia, California, USA). The concentration of each sample was determined based on the absorbance at 260 nm (A260). The purity of each sample was determined based on the ratio of A260 to A280. A range of 1.9-2.1 was considered adequately pure. The integrity of Total RNA samples was verified by Agilent 2200 Tape Station. Total RNA (250 ng) was converted to double-stranded cDNA (ds-cDNA) by using the cDNA synthesis kit (Affymetrix). An oligo-dT primer containing a T7 RNA polymerase promoter was utilized. The ds-cDNA was then purified and recovered by using purification beads (Affymetrix). Next, in vitro transcription was performed to generate biotin-labeled cRNA using a RNA Transcript Labeling Kit (Affymetrix). Biotin-labeled cRNA was purified using an RNeasy affinity column (Qiagen).
To ensure optimal hybridization to the oligonucleotide array, the cRNA was fragmented. Fragmentation was performed such that the cRNA fragments are between 50-200 bases in length by incubating the cRNA at 94° C. for 35 min in a fragmentation buffer. The sample was then added to a hybridization solution containing 100 mM IVIES, 1 M Na+, and 20 mM EDTA in the presence of 0.01% Tween 20. The final concentration of the fragmented cRNA was […]. Hybridization was performed by incubating 200 uL of the sample to the Affymetrix GeneChip® PrimeView™ human gene expression array (Affymetrix Inc., Santa Clara, California, USA) at 45° C. for 16 hours using a GeneChip® Hybridization Oven 640 (Affymetrix).
After hybridization, the hybridization solutions were removed and the arrays were washed and stained with Streptavidin-phycoerythrin using a GeneChip® Fluidics Station 450 (Affymetrix). Arrays were read at a resolution of 2.5 to 3 microns using the GeneChip Scanner 3000 (Affymetrix). Each gene was represented by the use of −11 probes per transcript and many control probes. The Command Console GeneChip software program was used to determine the intensity of expression for all genes on the array. For this experiment, fold-induction of genes by PB201 treatment of HepG2 cells was calculated compared to the average intensity observed in control HepG2 cells in culture solution without any added stimulus such as PB201.

O=C(CC(=O)c1ccccc1)c1ccccc1 [PB201, 1,3-diphenyl-1,3-propanedione]
Induction of Nrf2-dependent luciferase gene expression ([1]; A172 human brain cell line, other experiments (FIG. 5)): lower, but measurable, induction
Nrf2 gene activation and luciferase expression ([1]; brain cells (A172), this experiment (FIGS. 2-4)): no activation
Nrf2 gene activation and luciferase expression ([1]; breast cells (AREc32, MCF7), 18 h incubation): exhibited Nrf2 gene activation and luciferase expression
Nrf2 gene activation and luciferase expression ([1]; kidney cells (293T), 18 h incubation): exhibited Nrf2 gene activation and luciferase expression
Nrf2 gene activation and luciferase expression ([1]; liver cells (HepG2), 18 h incubation): exhibited Nrf2 gene activation and luciferase expression
Nrf2 gene activation and luciferase expression ([1]; lung cells (A549; constitutive Nrf2 activation due to mutation)): lesser activation; also recorded: low or negative response
fold induction at 1.5 µg/mL ([2]; vs control HepG2, read-out: Fold induction by PB201: AGPAT9): 2.46
fold induction at 1.5 µg/mL ([2]; vs control HepG2, read-out: Fold induction by PB201: AKR1B10///AKR1B15): 5.85
fold induction at 1.5 µg/mL ([2]; vs control HepG2, read-out: Fold induction by PB201: AKR1B15): 4.1
fold induction at 1.5 µg/mL ([2]; vs control HepG2, read-out: Fold induction by PB201: AKR1C1): 4.97
fold induction at 1.5 µg/mL ([2]; vs control HepG2, read-out: Fold induction by PB201: AKR1C2///LOC100653286): 6.56
fold induction at 1.5 µg/mL ([2]; vs control HepG2, read-out: Fold induction by PB201: AQP3): 3
fold induction at 1.5 µg/mL ([2]; vs control HepG2, read-out: Fold induction by PB201: BHMT2): 3.8
fold induction at 1.5 µg/mL ([2]; vs control HepG2, read-out: Fold induction by PB201: CCPG1///DYX1C1-CCPG1): 2.51
fold induction at 1.5 µg/mL ([2]; vs control HepG2, read-out: Fold induction by PB201: CYP4F3): 2.46
fold induction at 1.5 µg/mL ([2]; vs control HepG2, read-out: Fold induction by PB201: CYP4F11): 4.43
fold induction at 1.5 µg/mL ([2]; vs control HepG2, read-out: Fold induction by PB201: EID3): 4.18
fold induction at 1.5 µg/mL ([2]; vs control HepG2, read-out: Fold induction by PB201: FOS): 2.91
fold induction at 1.5 µg/mL ([2]; vs control HepG2, read-out: Fold induction by PB201: FTH1): 2.62
fold induction at 1.5 µg/mL ([2]; vs control HepG2, read-out: Fold induction by PB201: GCLM): 4.03
fold induction at 1.5 µg/mL ([2]; vs control HepG2, read-out: Fold induction by PB201: GLA): 2.59
fold induction at 1.5 µg/mL ([2]; vs control HepG2, read-out: Fold induction by PB201: GSTA1///GSTA2): 6.99
fold induction at 1.5 µg/mL ([2]; vs control HepG2, read-out: Fold induction by PB201: HMOX1): 3.64
fold induction at 1.5 µg/mL ([2]; vs control HepG2, read-out: Fold induction by PB201: KYNU): 3.9
fold induction at 1.5 µg/mL ([2]; vs control HepG2, read-out: Fold induction by PB201: MLLT11): 2.71
fold induction at 1.5 µg/mL ([2]; vs control HepG2, read-out: Fold induction by PB201: OSGIN1): 3.18
fold induction at 1.5 µg/mL ([2]; vs control HepG2, read-out: Fold induction by PB201: PANX2): 2.88
fold induction at 1.5 µg/mL ([2]; vs control HepG2, read-out: Fold induction by PB201: PTGR1): 4.79
fold induction at 1.5 µg/mL ([2]; vs control HepG2, read-out: Fold induction by PB201: SLC16A6): 3.8
fold induction at 1.5 µg/mL ([2]; vs control HepG2, read-out: Fold induction by PB201: SQSTM1): 2.84
fold induction at 1.5 µg/mL ([2]; vs control HepG2, read-out: Fold induction by PB201: SRXN1): 2.8
fold induction at 1.5 µg/mL ([2]; vs control HepG2, read-out: Fold induction by PB201: TEX19): 3
fold induction at 1.5 µg/mL ([2]; vs control HepG2, read-out: Fold induction by PB201: TRPV3): 3.51
fold induction at 1.5 µg/mL ([2]; vs control HepG2, read-out: Fold induction by PB201: TUBA4A): 2.55
